“Also recorded” adds a separate entry of the source. Where a name gives a salt, the structure may show the parent alone. Read-outs that look alike come from different tables or passages of the source.
Assays:
[1] = Plasma pharmacokinetics of 2-pyridylacetic acid after betahistine hydrochloride (LC/MS/MS); settings: for Terminal elimination rate / Cmax: mean ± SD; for AUC(0-t) / Tmax / half-life / Cmax: plasma
Experimental: Blood samples for pharmacokinetic analysis were collected just prior to study drug dosing, and at 0.5, 1, 1.5, 2, 3, and 4 hours. Samples (5 ml) were collected in tubes containing EDTA and were placed on ice after gentle shaking. Samples were centrifuged within 15 min at 4° C. at 3000×g for 10 min and plasma was separated into polypropylene tubes. Plasma was stored at −70° C. until further analysis.
Plasma samples were analyzed using a validated liquid chromatography tandem mass spectroscopy (LC/MS/MS) as reported by Chen et al. with minor modifications. To 500 μL of plasma, 100 μL of 0.5 M orthophosphoric acid (H3PO4) was added. The mixed sample was extracted with 5 ml of ethyl acetate and 2-propanol mixture (97.5:2.5, v/v) and vortex-mixed thoroughly for 1 min. Sample was centrifuged at 2000×g for 10 min maintained at 4° C., the upper clear portion was carefully transferred to a glass tube and evaporated to dryness under nitrogen gas at 25° C. The residue was reconstituted with 100 μL of mobile phase and filtered using a Sep-pak® (Waters) SPE cartridges which was pre-equilibrated with mobile phase. The processed samples were analyzed using a liquid chromatography equipped with a Surveyor autosampler model Plus and a Surveyor quaternary gradient HPLC-pump (Thermo Fisher Scientific) connected to a linear ion trap-Fourier Transform LTQ-FT™ mass spectrometer operated in positive ion electrospray mode.
Plasma concentration-time profile data were used to calculate Cmax, time to achieve Cmax (Tmax), terminal elimination half-life (T1/2), area under the plasma concentration-time curve from zero to last measurable time point (AUC0-t). The half life (T1/2) was calculated as 0.693/λz, where λz is the terminal-phase elimination rate constant. AUC0-t was calculated using the linear trapezoidal rule area under the curve (AUC0-t) from time zero to the time of the last measurable concentration (CT) at 4 hrs (last measurable time point).

[2] = test system: histamine H3 autoreceptors; settings: cats, oral, cited from earlier work
[3] = humans, cited from earlier work
[4] = test system: ADHD adults; test: Satiety Quotient (surrogate marker of appetite suppression); format: in vivo, human; settings: RMANOVA, treatment 0, 50, 100, 200 mg
Description: Instead, the study used surrogate markers of ADHD efficacy which are widely accepted, such as the signal detection (A prime) measures from the Continuous Performance Task (CPT) and a Go-no-Go task. Improvements or enhanced signal detection for either of these tasks track well with clinical improvements measuring ADHD symptom severity and frequency. (Epstein et al., Relations Between Continuous Performance Test Performance Measures and ADHD Behaviors, J. of Abnormal Child Psych. 31:5, 543-54 (2001)). […] To reflect this design, the study was analyzed using a repeated-measures analysis of variance (ANOVA) model (in SAS version 9.2, using the MIXED procedure). Treatment (4 levels: 0, 50, 100, 200) and Period (3 levels) and their interaction were included as fixed within-subject factors.

[5] = test system: adult human subjects having ADHD; settings: in vivo
Description: (§1) Subjects were randomly assigned to active drug, dose, and/or placebo using a modified Latin Square design. Safety measures, including vital signs, electrocardiogram, peak respiratory flow, clinical laboratory tests, and logging of adverse events were observed.
There were 39 total adverse events (AEs) across 16 total subjects, of which 12/16 accounted for all 39 reports. Only 16/39 AEs were rated as moderate in severity. […] Of the 39 total AEs, 21/39 were judged by the investigator to be possibly related to study drug based primarily on proximity (within 3 hours) to study drug administration. Only 3/39 AEs were judged as probably related to study drug and consisted of orthostasis, drowsiness and agitation. All adverse events resolved within 24 hours of the visit and most resolved by the end of each study visit (each visit lasting 5-6 hours). One subject experienced orthostatic hypotension at 1 hour following study drug administration on two separate occasions (Visit 1 (rated as mild) and Visit 3 (rated as moderate), the later judged to be probably study drug-related.
(§2) Those AEs which accounted for >10% of the total were headache (n=11), fatigue (n=8), somnolence (n=8) and dizziness (n=4). […] The ECG data is summarized in Table 1 and categorized as benign.

[6] = test system: rats; settings: cited from earlier work
[7] = test system: healthy volunteers; settings: cited from earlier work
[8] = test system: ADHD adults; test: Pulmonary function (forced expiratory volume); format: in vivo, human
Experimental: as §1
All pulmonary function readings were analyzed by a board certified pulmonologist and no report was rated clinically significant.

[9] = animal studies, peripheral administration; cited from earlier work
[10] = test system: patients with cerebrovascular dementia; settings: placebo-controlled trials; cited from earlier work
[11] = test system: HPA axis; test: Cortisol response / HPA axis activity in rats; format: in vivo, rat
Description: Certain subtypes of depression have been associated with decreased function of the hypothalamic-pituitary-adrenal (HPA) axis as evidenced by low cortisol and/or decreased CRH and ACTH levels.

[12] = test system: ADHD adults; test: Heart rate and blood pressure change from baseline; format: in vivo, human
Description: as §1
Changes from baseline in heart rate and BP were not dose dependent, nor were changes in these cardiovascular parameters by dose appreciably different from the placebo condition.

[13] = test system: ADHD adults; test: Continuous Performance Task (CPT) signal detection, A prime and B prime; format: in vivo, human
Description: Subjects were randomly assigned to active drug, dose, and/or placebo using a modified Latin Square design. Safety measures, including vital signs, electrocardiogram, peak respiratory flow, clinical laboratory tests, and logging of adverse events were observed. […] Instead, the study used surrogate markers of ADHD efficacy which are widely accepted, such as the signal detection (A prime) measures from the Continuous Performance Task (CPT) and a Go-no-Go task. Improvements or enhanced signal detection for either of these tasks track well with clinical improvements measuring ADHD symptom severity and frequency. (Epstein et al., Relations Between Continuous Performance Test Performance Measures and ADHD Behaviors, J. of Abnormal Child Psych. 31:5, 543-54 (2001)). […] To reflect this design, the study was analyzed using a repeated-measures analysis of variance (ANOVA) model (in SAS version 9.2, using the MIXED procedure). Treatment (4 levels: 0, 50, 100, 200) and Period (3 levels) and their interaction were included as fixed within-subject factors. In the case of signal detection measures, measures over three repeated blocks in each of three sessions were averaged to produce a summary measure for that session. Sessions were performed prior to drug administration and at two and four hours post-administration. A third within-subject factor (time since drug administration in hours; 0, 2, and 4 hours) was included along with its interactions with the treatment and period effects. A compound-symmetry structure was assumed for the correlation pattern of the within-subject residuals (equivalent to allowing each subject to have an individual intercept term to account for correlation among repeat measures on the same subject). Principle hypothesis tests were comparisons of the average of the non-zero doses against the placebo, as well as comparisons of each individual non-zero dose versus placebo. These were performed as linear contrasts, two-sided, α=0.05.

[14] = test system: ADHD adults; test: ECG parameters (QT, QTc) after single-dose betahistine in ADHD adults; format: in vivo, human; settings: for QT Baseline / QTc Baseline: baseline (pre-dose); for QT 2 hours / QTc 2 hours: 2 hours post-dose
Description: as §1, §2
Throughout the study, two subjects experienced a conversion of their baseline ECG from normal to abnormal but not clinically significant two hours following a dose of study drug betahistine. […] Each of these abnormal ECGs were not repeated in these same subjects with other doses of betahistine.

[15] = test system: patients with multiple sclerosis; settings: cited from earlier work
[16] = test system: histamine release in the anterior hypothalamus; settings: rats; cited from earlier work
[17] = test system: HPA axis; settings: mice; cited from earlier work
[18] = after 100 mg betahistine hydrochloride
[19] = RMANOVA, treatment 0, 50, 100, 200 mg
[20] = RMANOVA, treatment 0, 50, 100, 200 mg, DF 3/29

For `O=C(O)Cc1ccccn1` [2-pyridylacetic acid], the “Half-life and Tmax across the dose levels” value ([1]; 50, 100, 200 mg betahistine) was “remained unchanged”, the Terminal elimination rate ([1]; after 50 mg betahistine hydrochloride) was 0.43 ± 0.35 h⁻¹ and the Terminal elimination rate [1, 18] was 0.25 ± 0.18 h⁻¹. The Terminal elimination rate ([1]; after 200 mg betahistine hydrochloride) was 0.28 ± 0.17 h⁻¹, the AUC(0-t) ([1]; human, 50 mg) was 1300 ± 587 ng·h/mL and the Tmax ([1]; human, 50 mg) was 1.55 ± 0.44 h. For the same molecule, the half-life ([1]; human, 50 mg) was 4.24 ± 1.68 h, the Cmax ([1]; human, 50 mg, Cmax, after 50 mg betahistine hydrochloride) was 611 ± 490 ng/mL and the AUC(0-t) ([1]; human, 100 mg) was 2780 ± 1840 ng·h/mL. The Tmax ([1]; human, 100 mg) was 1.3 ± 0.35 h, the half-life ([1]; human, 100 mg) was 3.74 ± 1.97 h and the Cmax ([1]; human, 100 mg, Cmax, after 100 mg betahistine hydrochloride) was 1040 ± 673 ng/mL. It also gave an AUC(0-t) ([1]; human, 200 mg) of 5250 ± 2430 ng·h/mL, a Tmax ([1]; human, 200 mg) of 2.05 ± 0.86 h and a half-life ([1]; human, 200 mg) of 3.88 ± 3.38 h. For the same molecule, the Cmax ([1]; human, 200 mg, Cmax, after 200 mg betahistine hydrochloride) was 2040 ± 905 ng/mL and the Cmax [1, 18] was 1043.88 ± 673.49 ng/mL.
For `CNCCc1ccccn1` [betahistine dihydrochloride], the “Dose required for rapid biological effect on histamine H3 autoreceptors” value ([2]; relative to human-equivalent 24-48 mg/day) is listed as 5 fold and 10 fold higher equivalent doses were required.
For `CNCCc1ccccn1.CS(=O)(=O)O.CS(=O)(=O)O` [betahistine mesylate], the Bioavailability ([3]; oral) is given as “less than 1%”.
For `CNCCc1ccccn1` [betahistine], the “Biologic effects on brain histamine or histamine H3 receptors” value ([2]; roughly the human dose (48 mg/day)) is given as “no biologic effects”, the “Satiety Quotient - 2 hrs, Treatment effect, Pr > F” value [4] is given as 0.4475 and the “Satiety Quotient - 4 hrs, Treatment effect, Pr > F” value [4] is given as 0.8360. For the same molecule, the “Satiety Quotient - 2 hrs, Treatment effect, F Value” ([4]; DF 3/21) was 0.92, the “Satiety Quotient - 4 hrs, Treatment effect, F Value” ([4]; DF 3/21) was 0.28 and the “AEs judged possibly related to study drug” value ([5]; human) was 21/39. The “AEs judged probably related to study drug” value ([5]; human) was 3/39, the “AEs rated as moderate in severity” value ([5]; human) was 16/39 and the Total adverse events ([5]; human) was 39. For the same molecule, the “AEs reported as severe” value [5] was “No AEs were reported as severe”, the “Relationship between frequency or severity of AEs and dose” value [5] was “no relationship” and the Eating behavior [6] was “decrease eating behavior in rats in a dose-dependent manner”. The “Effects on arousal and vigilance” value ([7]; 32 mg dose vs placebo) was “no effect; also recorded: no noticeable CNS-stimulating effects”, the “Effects on arousal and vigilance” value ([7]; single dose 64 mg vs placebo) was “greater than those observed with placebo; also recorded: only mild stimulant-like effects” and the “Effect on airway compliance and/or pulmonary function” value ([8]; FEV 25-75 at four hour post-dose) was “minimal or no effect”. The “Change in forced expiratory volume in 1 second (FEV) from baseline” value ([8]; betahistine vs placebo (FIG. 4)) was “No clinically significant change”, the “Biologic half-life, mean” value [3] was 5 hours and the “Biologic half-life, variability” value [3] was 2-11 hours. The “CNS concentration relative to plasma levels” value [9] was “approximately half”, the “Motor activity and cognitive functioning” value [10] was “increase motor activity and improve cognitive functioning” and the “Cortisol response to stress” value [11] was “increases the cortisol response to stress”. The “Effect on decrease in cortisol after dexamethasone administration” value [11] was “counteracts the decrease in cortisol”, the “Heart rate and blood pressure effects” value ([12]; 50, 100, 200 mg, not dose dependent) was “minimal and judged as not clinically significant” and the “Change in systolic blood pressure from baseline” value ([12]; betahistine 50, 100, 200 mg vs placebo (FIG. 2)) was “No clinically significant change”. The “Change in diastolic blood pressure from baseline” value ([12]; betahistine 50, 100, 200 mg vs placebo (FIG. 3)) was “No clinically significant change”, the “APRIME_CPT, Treatment effect, Pr > F” value [13, 19] was 0.0254 and the “BPRIME_CPT, Treatment effect, Pr > F” value [13, 19] was 0.0045. The “APRIME_CPT, Treatment effect, F Value” [13, 20] was 3.59, the “BPRIME_CPT, Treatment effect, F Value” [13, 20] was 5.38 and the “Effect on attention (CPT sensitivity and inhibition)” value ([13]; adults with ADHD, single doses up to 200 mg) was “improves attention”. The “CPT A prime, effect vs placebo” value ([13]; betahistine vs placebo) was “demonstrated a treatment effect compared to placebo”, the “ECG data, category” value ([14]; 50, 100, 200 mg) was “benign” and the “QT Baseline” value ([14]; betahistine 50 mg group) was 416 ± 33 ms. The “QTc Baseline” value ([14]; betahistine 50 mg group) was 416 ± 18 ms, the “QT 2 hours” value ([14]; betahistine 50 mg) was 403 ± 26 ms and the “QTc 2 hours” value ([14]; betahistine 50 mg) was 407 ± 18 ms. The “QT Baseline” value ([14]; betahistine 100 mg group) was 412 ± 27 ms, the “QTc Baseline” value ([14]; betahistine 100 mg group) was 409 ± 13 ms and the “QT 2 hours” value ([14]; betahistine 100 mg) was 395 ± 37 ms. For the same molecule, the “QTc 2 hours” value ([14]; betahistine 100 mg) was 401 ± 14 ms, the “QT Baseline” value ([14]; betahistine 200 mg group) was 403 ± 37 ms and the “QTc Baseline” value ([14]; betahistine 200 mg group) was 410 ± 18 ms. The “QT 2 hours” value ([14]; betahistine 200 mg) was 400 ± 34 ms, the “QTc 2 hours” value ([14]; betahistine 200 mg) was 405 ± 17 ms and the “QT and rate corrected QTc (Bazett's) change from baseline” value ([14]; betahistine 50, 100, 200 mg vs placebo (FIG. 1)) was “No clinically significant change”. For the same molecule, the “Abnormal ECGs, clinical significance” value ([14]; two subjects abnormal but NCS at 2 hours (200 mg, 50 mg)) was “no abnormal ECGs were read as clinically significant” and the Symptoms of fatigue [15] was “statistically significant reduction”.
For `NC(=O)C[S+]([O-])C(c1ccccc1)c1ccccc1` (centres unmarked) [modafinil], the Hypothalamic histamine release [16] is listed as “increase hypothalamic histamine release”.
For `NNCCc1ccccc1` [phenelzine], the Cortisol levels [17] is listed as “increases cortisol levels”.

From patent publication US8242148B2 (priority 2005, dated 2012)
